Source: patent publication US20200147028A1, “TREATMENT OF RESPIRATORY INFECTION WITH A TLR2 AGONIST” (Ena Therapeutics Pty Ltd, priority 2017, published 2020)
Entries after “also recorded” stand apart in the source; their conditions may differ. Read-outs that look alike come from different tables or passages of the source. No end group written: not given here.

How the values were obtained:
[1] = system: Rhinovirus serotype 1B (RV1B); assay: Mouse RV1B infection with fluticasone propionate: lung viral RNA by qPCR; settings: FP 1 hour before RV1B in Saline control mice
TNF-α = assay: Mouse RV1B infection with fluticasone propionate: TNF-α in BAL by ELISA; assay type: in vivo, BALB/c mice; settings: FP treatment
[2] = assay type: in vivo, BALB/c mice; settings: 2 pmol INNA-006 day −7 or day −7 & −1; FP 1 hour before RV1B
Description: Each group contained 8 mice.

TNFα = assay: Mouse RV1B infection model: TNFα in BAL by ELISA
Description: (§1) Remaining lung lobes we snap frozen in liquid nitrogen, homogenised in 600 μl PBS containing protease inhibitors (Roche) by TissueLyser II run twice at 30 Hz for 4 minutes. Cell debris was pelleted by centrifugation, samples were diluted 1:2 with PBS and stored at −80° C. BAL fluid was then analysed for production of KC/IL-8 (CXCL1) and TNF-α by Duoset ELISA (R&D Systems) as per manufacturer's instructions.

[3] = system: Rhinovirus serotype 1B (RV1B); assay: Mouse RV1B infection model: lung viral RNA by qPCR; settings: for reduction of RV infection (lung RV copy number): Study 1E: 10 pmol day −7; for RV copy number in lung: Study 1E: every dose 1-10 pmol day −7; for lung viral load: day +1
CXCL1 = assay: Mouse RV1B infection model: CXCL1 in BAL by ELISA
Description: as §1

[4] = parameters: species or system BALB/c mice; settings: mouse, in vivo
Description: Each group contained 5 mice.

BAL inflammatory cells = assay: Mouse RV1B infection model: BAL cell analysis
Description: Following sacrifice, mice were tracheally cannulated and 1 ml of Hanks buffered saline solution (Hyclone™, GE Life Sciences) flushed through the airways, 3-5 times. BAL cells were pelleted by centrifugation and supernatant was collected and stored at −80° C. for ELISAs. The pelleted cells were red blood cells lysed and the remaining cells were counted on a heamocytometer by trypan blue exclusion. Cell suspensions were then cytocentrifuged onto slides and fixed and stained with Diff Quick (POCD) solutions as per manufacturer's recommendations. A minimum of 200 total cells were counted per slide and numbers of neutrophils, lymphocytes, and macrophages were determined.

TLR-2 = TLR-2 (Homo sapiens, UniProt O60603); assay: NF-κB luciferase reporter in HEK293T cells transfected with human TLR2; assay type: cell-based; parameters: expressed in transfected cells; host or cells: HEK293T; settings: dose range 12.2 pM to 3.125 pM, FIG. 20
TLR-2, sequence (O60603 21-784): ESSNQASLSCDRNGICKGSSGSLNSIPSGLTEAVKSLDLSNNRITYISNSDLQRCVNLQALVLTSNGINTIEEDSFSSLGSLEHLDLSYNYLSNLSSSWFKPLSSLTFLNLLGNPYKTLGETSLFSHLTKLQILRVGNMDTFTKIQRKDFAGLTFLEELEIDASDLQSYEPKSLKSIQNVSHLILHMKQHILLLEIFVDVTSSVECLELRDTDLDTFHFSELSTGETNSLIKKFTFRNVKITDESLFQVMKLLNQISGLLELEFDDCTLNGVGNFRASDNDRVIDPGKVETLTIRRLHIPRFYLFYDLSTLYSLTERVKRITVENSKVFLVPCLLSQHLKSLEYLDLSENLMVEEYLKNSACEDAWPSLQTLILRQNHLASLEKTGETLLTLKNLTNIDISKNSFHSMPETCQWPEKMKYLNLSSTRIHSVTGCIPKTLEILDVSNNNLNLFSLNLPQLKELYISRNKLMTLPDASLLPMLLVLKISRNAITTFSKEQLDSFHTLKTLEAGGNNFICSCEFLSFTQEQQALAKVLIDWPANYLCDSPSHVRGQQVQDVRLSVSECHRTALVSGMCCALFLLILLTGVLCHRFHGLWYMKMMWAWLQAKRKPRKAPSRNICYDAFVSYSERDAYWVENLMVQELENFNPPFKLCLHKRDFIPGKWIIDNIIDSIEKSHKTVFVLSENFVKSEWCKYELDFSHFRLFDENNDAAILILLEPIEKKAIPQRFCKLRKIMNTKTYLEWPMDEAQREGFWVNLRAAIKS
TLR-2, sequence (Q15399 25-786 partner): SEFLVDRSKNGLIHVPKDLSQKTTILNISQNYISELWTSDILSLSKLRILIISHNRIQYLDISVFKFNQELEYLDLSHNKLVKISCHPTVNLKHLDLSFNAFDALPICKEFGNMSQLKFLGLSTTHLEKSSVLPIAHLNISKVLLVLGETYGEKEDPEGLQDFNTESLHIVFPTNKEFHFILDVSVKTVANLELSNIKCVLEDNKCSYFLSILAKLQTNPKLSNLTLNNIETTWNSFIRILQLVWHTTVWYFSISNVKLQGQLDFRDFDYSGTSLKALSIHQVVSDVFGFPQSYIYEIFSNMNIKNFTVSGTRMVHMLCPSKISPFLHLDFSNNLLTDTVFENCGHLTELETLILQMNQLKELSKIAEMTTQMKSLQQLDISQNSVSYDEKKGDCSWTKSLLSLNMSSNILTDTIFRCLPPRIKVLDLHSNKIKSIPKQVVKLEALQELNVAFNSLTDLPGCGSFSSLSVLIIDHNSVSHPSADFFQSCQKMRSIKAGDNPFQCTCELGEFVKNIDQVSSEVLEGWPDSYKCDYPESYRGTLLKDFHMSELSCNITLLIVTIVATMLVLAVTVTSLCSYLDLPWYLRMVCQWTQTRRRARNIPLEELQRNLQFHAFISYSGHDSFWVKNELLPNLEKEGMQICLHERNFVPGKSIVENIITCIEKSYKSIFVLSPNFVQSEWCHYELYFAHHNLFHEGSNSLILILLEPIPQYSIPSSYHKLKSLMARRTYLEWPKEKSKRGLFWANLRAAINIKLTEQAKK
Description: Comparison of the abilities of various compounds to stimulate luciferase activity in an NF-κB cell-based reporter system was determined. Compounds tested include INNA-006 (or compound (1)); INNA-013 (or compound (4)); INNA-014 (or compound (3)); INNA-015 (or compound (2)); INNA-010; INNA-011 (or compound (5)); INNA-012 (or compound (6)); and INNA-009. HEK293T cells, transiently co-transfected with a human TLR2 plasmid and a luciferase-NF-κB plasmid reporter system, were exposed to various dilutions of each compound. Successful receptor binding and subsequent signal transduction events were determined by measuring the luminescence due to luciferase activity (results shown in FIG. 19—left to right columns for each concentration are in the following order INNA-006 (or compound (1)); INNA-013 (or compound (4)); INNA-014 (or compound (3)); INNA-015 (or compound (2)); INNA-010; INNA-011 (or compound (5)); INNA-012 (or compound (6)); and INNA-009.
Comparison of the in vitro TLR2 agonistic activity of Pam3Cys-Ser-PEG3000 and INNA-006: HEK293T cells, transiently co-transfected with a human TLR2 plasmid and a luciferase-NF-κB plasmid reporter system, were exposed to various dilutions of INNA-006 or Pam3Cys-Ser-PEG3000.
Successful receptor binding and subsequent signal transduction events were determined by measuring the luminescence due to luciferase activity (FIG. 20).

[5] = Study 1G: lowest doses (2 pmole and 1 pmole) day +1, listed as Peg-SS-Pam2Cys

## CCC(=O)O[C@]1(C(=O)SCF)[C@H](C)C[C@H]2[C@@H]3C[C@H](F)C4=CC(=O)C=C[C@]4(C)[C@@]3(F)[C@@H](O)C[C@@]21C [FP, fluticasone propionate, reference compound]
[1]
  viral lung load: Viral lung load was increased; also recorded: increased viral lung load in Saline control mice only
TNF-α
  TNF-α production stimulated by INNA-006: reduced TNF-α production stimulated by INNA-006
[2]
  weight loss: no significant weight loss

## Pam2Cys-SS-PEG [INNA-003]
TNFα; Study 1E: day −7, listed as Peg-SS-Pam2Cys
  TNF-α in BAL: not increased by any of the compounds; also recorded: lack of induction of TNFα
TNFα; Study 1F: 2 pmol, all groups
  TNF-α in BAL: did not induce TNF-α in any of the groups
TNFα; Study 1G: 10-1 pmol day +1
  TNF-α in BAL: dose dependent upon drug treatment
TNFα; [5]
  TNF-α in BAL: not increased by the lowest doses; also recorded: no significant increase in KC or TNFα
[3]
  reduction of RV infection (lung RV copy number): 84.82%
[3]; Study 1E: 10 pmol dose day −7, listed as Peg-SS-Pam2Cys
  anti-viral efficacy relative to Pam2CysSK4: better anti-viral efficacy compared to Pam2CysSK4
[3]; day 2 p.i.
  RV copy number in lung: significant reduction in RV infection
[3]; Study 1F: single treatment at day −7
  reduced viral RNA: 70%
[3]; Study 1F: treatment at both days −7 and −1
  reduction in viral RNA: approx. 90%
[3]; Study 1G: 10, 5, 2, 1 pmol 1 day post-infection, day 2 p.i.
  RV copy numbers in lung: reduces RV1B copy numbers in the lung
[3]; Study 1G: doses 5 pmole per mouse and lower
  lung viral load: significant reduction in lung viral load
[3]; Study 1G: highest dose 10 pmole per mouse
  lung viral load: less effective
CXCL1; Study 1E: every dose (1-10 pmol) day −7
  CXCL1 in BAL: effectively reduced CXCL1 levels
CXCL1; Study 1F: 2 pmol day −1, RV1B, listed as Peg-SS-Pam2Cys
  CXCL1 in BAL: CXCL1 production was only increased; also recorded: significantly increased in mice treated one day prior to infection
CXCL1; Study 1F: 2 pmol day −7 and day −1, listed as Peg-SS-Pam2Cys
  CXCL1 / lung inflammation after day −1 dose with prior day −7 dose: protected from lung inflammation; also recorded: completely abolished
CXCL1; Study 1G: 10-1 pmol day +1
  CXCL1 in BAL: dose dependent upon drug treatment
CXCL1; [5]
  CXCL1 (KC) in BAL: not increased by the lowest doses; also recorded: no significant increase in KC or TNFα
[4]
  weight loss: weight loss at the higher doses
  weight loss after second dose: no weight loss observed
BAL inflammatory cells; Study 1E: day −7, day 2 p.i.
  RV-induced BAL neutrophilic inflammation: significantly reduced neutrophilic inflammation
BAL inflammatory cells; Study 1F
  inflammatory potency, Peg-SS-Pam2Cys versus Peg-S-Pam2Cys: Peg-SS-Pam2Cys more inflammatory
BAL inflammatory cells; Study 1F: 2 pmol, 1 day prior to RV or mock infection
  BAL neutrophils: only significantly increased in mice with Peg-SS-Pam2Cys treatment 1 day prior to RV or mock infection
BAL inflammatory cells; Study 1F: 2 pmol, day −7, day −1 or both
  BAL lymphocytes: induced by Peg-SS-Pam2Cys at all treatment times (except day −7 treatment with RV1B infection)
BAL inflammatory cells; Study 1F: 2 pmol, vs Saline RV
  total BAL leukocytes in RV1B infected mice: did not induce significantly higher leukocyte recruitment
BAL inflammatory cells; Study 1F: 2 pmol, vs Saline mock
  total BAL leukocytes in mock infected mice: Total leukocytes were increased
BAL inflammatory cells; Study 1F: three days after dosing (d-1 groups)
  neutrophilic response in uninfected mice: there was a neutrophilic response to Peg-SS-Pam2Cys
BAL inflammatory cells; Study 1G: day +1 treatment
  BAL lymphocytes: no changes to lymphocyte numbers
  BAL macrophages: significantly reducing macrophage numbers
  total BAL leucocyte numbers: no significant differences
BAL inflammatory cells; Study 1G: day +1 treatment, listed as Peg-SS-Pam2Cys
  BAL neutrophils: drastically increases neutrophil numbers in BAL; also recorded: increasing neutrophil recruitment

## Pam2Cys-Ser-Lys-Lys-Lys-Lys (C(dipalmitoyl‑S‑glyceryl)SKKKK) [INNA-005, reference compound]
TNFα; Study 1E: day −7
  TNF-α in BAL: not increased by any of the compounds
[3]; Study 1E, day −7 (discussion)
  reduction in lung viral load: 50%
[3]
  reduction of RV infection (lung RV copy number): 58%
[3]; day 2 p.i.
  RV copy number in lung: significant reduction in RV infection
CXCL1; Study 1E: 10 pmol and 5 pmol dose day −7
  CXCL1 in BAL: effectively reduced CXCL1 levels

## Pam3Cys-Ser-PEG3000
TLR-2
  ability to signal NF-κB (luciferase), versus INNA-006: inferior to INNA-006
